In brackets after ≈: the same amount, converted by molar mass.
What was measured:
Type in all cases: cell-based
S. aureus ATCC 13709 = assay: MIC, S. aureus ATCC 13709 (Alamar Blue broth microdilution); settings: for MIC: Staphylococcus aureus
S. pneumoniae ATCC 51916 = assay: MIC, S. pneumoniae ATCC 51916; settings: for MIC: Streptococcus pneumoniae, ATCC51916, Spn = S. pneumoniae
E. coli ATCC 25922 = assay: MIC, E. coli ATCC 25922; settings: for MIC: Escherichia coli
P. aeruginosa ATCC 15692 = assay: MIC, P. aeruginosa ATCC 15692; settings: for MIC: Pseudomonas aeruginosa, ATCC15692, Pa = P. aeruginosa
A. baumannii ATCC 19606 = assay: MIC, A. baumannii ATCC 19606; settings: strain not given; for MIC: Acinetobacter baumannii, ATCC19606, Ab = A. baumannii
[1] = tested on: K. pneumoniae ATCC 700603; assay: MIC, K. pneumoniae ATCC 700603; settings: for MIC: Klebsiella pneumoniae, ATCC700603, read-out: MIC Kpn; for MIC Kpn: Kpn = K. pneumoniae
Y. pestis CO92 pgm- = assay: microbe, parasite or virus in culture
[2] = tested on: B. thailandensis ATCC E264; assay: microbe, parasite or virus in culture
[3] = tested on: F. tularensis holarctica LVS; assay: microbe, parasite or virus in culture
[4] = ATCC13709, S. aureus, Alamar Blue read after overnight incubation at 35° C.
[5] = ATCC25922, E. coli, Alamar Blue read after overnight incubation at 35° C.
[6] = ATCC25922, Ec = E. coli, strain not given
[7] = S. aureus, Alamar Blue read after overnight incubation at 35° C.
[8] = E. coli, Alamar Blue read after overnight incubation at 35° C.

| Structure (SMILES) | MIC (S. aureus ATCC 13709; [4]) [mg/L] | MIC (S. aureus ATCC 13709; ATCC13709, Sa = S. aureus) [mg/L] | MIC (S. pneumoniae ATCC 51916) [mg/L] | MIC (E. coli ATCC 25922; [5]) [mg/L] | MIC (E. coli ATCC 25922; [6]) [mg/L] | MIC (P. aeruginosa ATCC 15692) [mg/L] | MIC (A. baumannii ATCC 19606) [mg/L] | MIC [1] [mg/L] | also measured |
| --- | --- | --- | --- | --- | --- | --- | --- | --- | --- |
| CNc1cc(F)cc2c1[nH]c1nc(Oc3cnc(C)nc3)nc(N3CCC4(CC4N)C3)c12 (stereo not shown) [4.066] | ≤ 0.5 | ≤ 0.5 | ≤ 0.5 | ≤ 0.5 | ≤ 0.5 | 2 (≈ 4.6 µM) | ≤ 0.5 | 2 (≈ 4.6 µM) | MIC (Y. pestis CO92 pgm-; Yersinia pestis, CO92PGM, read-out: MIC Yp): ≤ 0.5 mg/L; MIC ([2]; Burkholderia thailandensis, ATCCE264, read-out: MIC Bt): ≤ 0.5 mg/L; MIC ([3]; Francisella tularensis, read-out: MIC Ft): 1 mg/L (≈ 2.3 µM) |
| CNc1cc(F)cc2c1[nH]c1nc(Oc3cnc(C)nc3)nc(N3C[C@@H]4[C@H](N)C[C@]4(C)C3)c12 [4.151] | ≤ 0.5 | ≤ 0.5 | ≤ 0.5 | ≤ 0.5 | ≤ 0.5 | 1 (≈ 2.23 µM) | ≤ 0.5 | 1 (≈ 2.23 µM) | – |
| CNc1cc(F)cc2c1[nH]c1nc(Oc3cnc(C)nc3)nc(N3CC4NCCC4(C)C3)c12 (stereo not shown) [4.157] | ≤ 0.5 | ≤ 0.5 | ≤ 0.5 | ≤ 0.5 | ≤ 0.5 | 8 (≈ 17.8 µM) | ≤ 0.5 | 4 (≈ 8.92 µM) | – |
| CNc1cc(F)cc2c1[nH]c1nc(Oc3cnc(C)nc3)nc(N3CCC4(CCC4N)C3)c12 (stereo not shown) [4.117] | – | – | – | – | – | – | – | – | MIC Sa (S. aureus ATCC 13709; [7]): ≤0.5 mg/L; MIC Sa (S. aureus ATCC 13709; Sa = S. aureus): ≤0.5 mg/L; MIC Spn (S. pneumoniae ATCC 51916): ≤0.5 mg/L; MIC Ec (E. coli ATCC 25922; [8]): ≤0.5 mg/L; MIC Ec (E. coli ATCC 25922; Ec = E. coli, strain not given): ≤0.5 mg/L; MIC Pa (P. aeruginosa ATCC 15692): 1 mg/L (≈ 2.23 µM); MIC Ab (A. baumannii ATCC 19606): ≤0.5 mg/L; MIC Kpn [1]: 2 mg/L (≈ 4.46 µM); MIC Yp (Y. pestis CO92 pgm-; Yp = Y. pestis): ≤0.5 mg/L; MIC Bt [2]: ≤0.5 mg/L; MIC Ft ([3]; Ft = F. tularensis, strain not given): 1 mg/L (≈ 2.23 µM) |
| CNc1cc(F)cc2c1[nH]c1nc(Oc3cnc(C(C)O)nc3)nc(N3CC4C[C@@H](N)C4C3)c12 (stereo partly shown) [4.409] | ≤ 0.5 | ≤ 0.5 | ≤ 0.5 | ≤ 0.5 | ≤ 0.5 | 1 (≈ 2.15 µM) | 1 (≈ 2.15 µM) | 4 (≈ 8.61 µM) | – |
| CNc1cc(F)c(C)c2c1[nH]c1nc(Oc3cnc(C)nc3)nc(N3C[C@H](N)C4(CC4)C3)c12 [6.29] | ≤ 0.5 | ≤ 0.5 | ≤ 0.5 | ≤ 0.5 | ≤ 0.5 | 2 (≈ 4.46 µM) | ≤ 0.5 | 2 (≈ 4.46 µM) | – |
| CNc1cc(F)cc2c1[nH]c1nc(Oc3ccc(C#N)nc3)nc(N3C[C@H]4C[C@@H]3C[C@H]4N)c12 [4.434] | ≤ 0.5 | ≤ 0.5 | ≤ 0.5 | ≤ 0.5 | ≤ 0.5 | 1 (≈ 2.25 µM) | ≤ 0.5 | 1 (≈ 2.25 µM) | – |
| CNc1cc(F)c(F)c2c1[nH]c1nc(Oc3cnc(C)nc3)nc(N3CC4(CCC4N)C3)c12 (stereo not shown) [5.01] | – | – | – | – | – | – | – | – | MIC Sa (S. aureus ATCC 13709; Sa = S. aureus): ≤0.5 mg/L; MIC Spn (S. pneumoniae ATCC 51916): ≤0.5 mg/L; MIC Ec (E. coli ATCC 25922; Ec = E. coli, strain not given): ≤0.5 mg/L; MIC Pa (P. aeruginosa ATCC 15692): ≤0.5 mg/L; MIC Ab (A. baumannii ATCC 19606): ≤0.5 mg/L; MIC Kpn [1]: 1 mg/L (≈ 2.21 µM) |
| CNc1cc(F)cc2c1[nH]c1nc(Oc3cnc(C(C)O)nc3)nc(N3CC4(CC[C@H]4N)C3)c12 (stereo partly shown) [4.410] | ≤ 0.5 | ≤ 0.5 | ≤ 0.5 | ≤ 0.5 | ≤ 0.5 | 1 (≈ 2.15 µM) | 2 (≈ 4.31 µM) | 2 (≈ 4.31 µM) | – |
| CNc1cc(F)c(C)c2c1[nH]c1nc(Oc3cnc(C)nc3)nc(N3CC4C[C@@H]3C[C@H]4N)c12 [6.28] | ≤ 0.5 | ≤ 0.5 | ≤ 0.5 | ≤ 0.5 | ≤ 0.5 | 1 (≈ 2.23 µM) | ≤ 0.5 | 2 (≈ 4.46 µM) | – |
| CNc1cc(F)c(F)c2c1[nH]c1nc(Oc3cnc(N)nc3)nc(N3CC(N)C4(CC4)C3)c12 (stereo not shown) [5.11] | – | – | – | – | – | – | – | – | MIC Sa (S. aureus ATCC 13709; [7]): ≤0.5 mg/L; MIC Sa (S. aureus ATCC 13709; Sa = S. aureus): ≤0.5 mg/L; MIC Spn (S. pneumoniae ATCC 51916): ≤0.5 mg/L; MIC Ec (E. coli ATCC 25922; [8]): ≤0.5 mg/L; MIC Ec (E. coli ATCC 25922; Ec = E. coli, strain not given): ≤0.5 mg/L; MIC Pa (P. aeruginosa ATCC 15692): 4 mg/L (≈ 8.82 µM); MIC Ab (A. baumannii ATCC 19606): 2 mg/L (≈ 4.41 µM); MIC Kpn [1]: 4 mg/L (≈ 8.82 µM) |
| CNc1cc(F)cc2c1[nH]c1nc(Oc3cnc(C4CC4)nc3)nc(N3CC4CCC3C4N)c12 (stereo not shown) [4.256] | ≤ 0.5 | – | – | ≤ 0.5 | – | – | – | – | – |
| CNc1cc(F)cc2c1[nH]c1nc(Oc3cnc(C)nc3)nc(N3CC(C)C(CN)C3)c12 (stereo not shown) [4.087] | – | – | – | – | – | – | – | – | MIC Sa (S. aureus ATCC 13709; [7]): ≤0.5 mg/L; MIC Ec (E. coli ATCC 25922; [8]): 1 mg/L (≈ 2.29 µM) |
| Nc1cccc2c1[nH]c1nc(Sc3cnc4cccnc4c3)nc(N3CC4C(N)C4C3)c12 (stereo not shown) [1.9] | 64 (≈ 145 µM) | – | – | > 64 | – | – | – | – | – |
| CNc1cc(F)cc2c1[nH]c1nc(Oc3cnc(CO)nc3)nc(N3C[C@@H]4C[C@H]3C[C@@H]4N)c12 [4.391] | ≤ 0.5 | – | – | ≤ 0.5 | – | – | – | – | – |
| CNc1cc(F)cc2c1[nH]c1nc(Oc3ccc(CO)nc3)nc(N3CC4CC3C[C@@H]4N)c12 (stereo partly shown) [4.392] | 16 (≈ 35.6 µM) | – | – | > 16 | – | – | – | – | – |
| CNc1cccc2c1[nH]c1nc(Oc3cncnc3)nc(N3C[C@@H]4CNC[C@H]4C3)c12 [3.61] | 4 (≈ 9.94 µM) | – | – | 16 (≈ 39.8 µM) | – | – | – | – | – |
| CNc1cc(F)cc2c1[nH]c1nc(Oc3cnc(Cl)nc3)nc(N3CC4CC(N)C4C3)c12 (stereo not shown) [4.378] | – | – | – | – | – | – | – | – | MIC Sa (S. aureus ATCC 13709; [7]): ≤0.5 mg/L; MIC Ec (E. coli ATCC 25922; [8]): ≤0.5 mg/L |
| CNc1cc(F)cc2c1[nH]c1nc(Oc3ccc4c(c3)ncn4C)nc(N3CC4C[C@@H](N)C4C3)c12 (stereo partly shown) [4.358] | ≤ 0.5 | – | – | 4 (≈ 8.47 µM) | – | – | – | – | – |
| COc1cccc2c1[nH]c1nc(Sc3cnc4cccnc4c3)nc(N3CC4C(N)C4C3)c12 (stereo not shown) [1.75] | ≤ 0.5 | – | – | > 64 | – | – | – | – | – |
| CNc1cccc2c1[nH]c1nc(Sc3cnc4cccnc4c3)nc(N3CCC(C)(N)C3)c12 (stereo not shown) [1.59] | 1 (≈ 2.19 µM) | – | – | 4 (≈ 8.76 µM) | – | – | – | – | – |

Source: US10858360B2, “Tricyclic gyrase inhibitors” (priority 2011, dated 2020)
